According to patent US20260315499A1, “2'- {HETEROCYCLYL (ARYL/ALKYL) METHYL} - CANNABIDIOL COMPOUNDS AND PROCESS FOR PREPARATION THEREOF” (COUNCIL OF SCIENTIFIC & INDUSTRIAL RESEARCH, priority 2023, published 2026):
Where “and” joins values, the source holds several entries; their conditions need not be identical. Equal values may be shown once.

Experiments:
[1] = test system: depression mice model; test: In vivo corticosterone induced depression model: Forced Swim Test; design: species or system mouse (male C57)
Procedure: (§1) In vivo efficacy (ameliorates behavioral despair) of A1 in corticosterone induced model of stress (J. Neurochem., 2018 146, 722 734). […] A1 (20 mg/kg, oral) dissolved in normal saline was given for 3 consecutive weeks following corticosteroid stress. The sucrose preference test was employed, tail suspension test, and forced swim test to evaluate behavioral distress. We noticed that A1 can resurrect mice in stressful situations. […]
The forced swim test was employed to evaluate behavioral melancholy in depressed subjects. Each animal was individually conditioned in a glass cylinder 20 cm long, 10 cm deep and 14 cm radius of curvature. After being submerged in water for 5 mins, the mice's cumulative stationary episode, struggle in water, and eventual floating condition were evaluated. The duration for which the animals were motionless while attempting to hold both of their front limbs still was calculated by interpreting the visualizations portraying behavioral despair (Front Behav Neurosci., 2018, 12, 42).

[2] = In vivo corticosterone induced depression model: effect on body weight; design: species or system mouse (male C57); conditions: A1 20 mg/kg oral, fluoxetine 18 mg/kg, 21 days
Procedure: as §1

[3] = test system: depression mice model; test: In vivo corticosterone induced depression model: sucrose preference test; design: species or system mouse (male C57); conditions: 2% sucrose, 21 days
Procedure: as §1
Sucrose consumption was employed to evaluate anhedonia, a core hallmark of depression in mice. The animals were allowed unfettered access to both identical bottles, one containing water while the other contained a 2% solution of sucrose, for 21 days.
The below equation was later employed to determine water and sugar consumed by mice:
Sucrose Preference=Sucrose consumed[…]/Total fluid intake.

[4] = test system: depression mice model; test: In vivo corticosterone induced depression model: Tail Suspension Test (TST); design: species or system mouse (male C57); conditions: A1 20 mg/kg, fluoxetine 18 mg/kg
Procedure: A1 (20 mg/kg, oral) dissolved in normal saline was given for 3 consecutive weeks following corticosteroid stress. The sucrose preference test was employed, tail suspension test, and forced swim test to evaluate behavioral distress.
Tail Suspension Test (TST) is a behavioral test employed to assess perturbations expected to influence depression like phenotypes. TST is grounded on the reflection that the extent of immobility is allied with depressing phenotype of mice overturned by antidepressants. Mice were positioned 2 cm from their tail tips and 5 cm above the ground suspending the tails using adhesive tape for the free movement (Acta Neuropathol Commun., 2016, 4(1), 108).
The contemporary immobility was alluded to as interruption in motion, where a blind assessor evaluates the disappointed aspect of display before scoring it.

[5] = test system: p TrkB 515; test: Survival pathway protein expression by western blotting in SHSY5Y; assay type: cell-based, human; conditions: DHF 5 nM, 6 hrs
Procedure: (§2) Here, A1 was tested to find its role in eliciting survival pathway proteins in differentiated human neuroblastoma cells in concentration and time dependent manner.
(§3) To investigate the effect of A1 on the survival proteins, SHSY5Y cell cultures were treated with different concentrations for 6 hrs and analyzed for the expression of survival proteins, including p-Erk 44/42, p-AKT 473, Anti BDNF, and p TrkB 816 and p TrKB 515 by western blotting.

[6] = test system: p-Erk 44/42; test: as above; assay type: cell-based, human; conditions: 6 hrs
Procedure: as §2, §3

[7] = test system: Anti BDNF; test: as above; assay type: cell-based, human; conditions: 6 hrs
Procedure: as §2, §3

[8] = test system: p TrkB 816; test: as above; assay type: cell-based, human; conditions: DHF 5 nM, 6 hrs
Procedure: as §2, §3

[9] = test system: p-AKT 473; test: as above; assay type: cell-based, human; conditions: 6 hrs
Procedure: as §2
To investigate the effect of A1 on the survival proteins, […] of survival proteins, including p-Erk 44/42, p-AKT 473, Anti BDNF, and p TrkB 816 and p TrKB 515 by western blotting.

[10] = test system: differentiated SHSY5Y cell cultures; test: Neuroprotective potential in differentiated SHSY5Y after 96 hrs, concentration series with and without corticosterone; assay type: cell-based, human; conditions: DHF 5 nM + Cort 400 μM, 96 hrs
Description: Furthermore, A1 intervention in presence of corticosterone evidenced neuroprotective effect against corticosterone induced impairment and cell death.

[11] = test system: differentiated SHSY5Y cell cultures; test: as above; assay type: cell-based, human; conditions: DHF 5 nM, without Cort, 96 hrs
[12] = test system: p TrkB 515; test: Survival pathway protein expression by western blotting in SHSY5Y; assay type: cell-based, human; conditions: DHF/Cort., 6 hrs
[13] = test system: p TrkB 816; test: as above; assay type: cell-based, human; conditions: DHF/Cort., 6 hrs
[14] = Cell viability assay in macrophage RAW264.7 cells (MTT); assay type: cell-based; conditions: mouse, read-out: % cell viability ± SD
Procedure: RAW264.7 cells were seeded in 96-well cell culture plates at a density of 1×10^4 cells per well and incubated overnight at 37° C. with 5% CO2. Next day, the cells were treated with CBD or its derivatives at 5 μM and/or 10 μM concentration for 24 hrs. The MTT dye (2.5 mg/ml, 20 μL) was added to each well 4 hrs before termination (Molecules. 2022, 27, 8068). After 4 hrs of incubation with MTT, the supernatant was discarded, and the formazan crystals were dissolved by adding 100 μL DMSO. The absorbance was recorded at 540 nm on microplate reader (Tecan Infinite Pro).

[15] = test system: nitric oxide (NO) production in RAW264.7 macrophages; test: In vitro anti-inflammatory activity: nitric oxide production (Griess) in LPS-exposed RAW264.7 macrophages; assay type: cell-based, mouse; conditions: Mus musculus, RAW264.7, LPS 24 hrs, read-out: % NO Inhibition ± SD
Procedure: Measurement of Nitric oxide: RAW264.7 macrophages were seeded in 96-well plates with a density of 0.5×10^5 cells/well and incubated overnight at 37° C. in a 5% CO2 atmosphere. The cells were treated with different concentration of CBD and its analogues and exposed to LPS for 24 hrs. For nitric oxide (NO) determination, the cell culture supernatant was taken and mixed with equal volume of Griess reagent in another 96 well plate at room temperature (Biomed Pharmacother., 2017, 92, 175-186). The absorbance was measured at 540 nm. The final calculations were determined on a NaNO2 standard curve.

[16] = Cell viability assay in differentiated neuronal cells (MTT), N2A; assay type: cell-based; conditions: mouse, read-out: % Cell viability ± SD, N2A
Description: (§4) In the present disclosure outlined herein, a focused library of cannabidiol analogues were studied for possible neuro-protective potential employing cell line-based stress model systems which mimic the biological stress conditions in vitro (J Cell Biochem., 2018, 119(8), 6482-6491).
(§5) Human neuroblastoma cells (SHSY5Y) and mouse neuroblastoma cells (N2A) were procured from American Type Culture Collection (ATCC). SHSY5Y cell cultures were maintained in DMEM F12 (Invitrogen) whereas N2A were cultured in DMEM (Invitrogen) with 10% Fetal Bovine Serum (Gibco) medium, subjected to differentiation to acquire neuronal morphology (employing differentiation media DMEM-F12, 3-5% FBS, (For differentiation, low concentration of FBS was used) and 50 μM retinoic acid). Differentiated cells were later seeded into 96 well plates, at a density of 1×10^4 before being incubated for 48 hrs with the synthesized library. The exhausted culture media was substituted with new culture media containing 0.5 mg/ml MTT dye. Eventually, the OD at 490 nm excitation was measured using a 96-well plate reader. The proportion of viable cells was determined as percentage of absorbance of untreated cultures relative to control.

[17] = Cell viability assay in differentiated neuronal cells (MTT), SHSY5Y; assay type: cell-based; conditions: human, read-out: % Cell viability ± SD, SHSY5Y
Description: as §4, §5

SMILES: CNCCC(Oc1ccc(C(F)(F)F)cc1)c1ccccc1 (stereo not shown) [Fluoxetine]
- % Immobility (sec) ± SD (dead time) ([1]; with Cort.): 47.84 ± 10.33 s
- % Latency to immobility (sec) ± SD ([1]; with Cort.): 34.06 ± 11.21 s
- % Immobility (sec) ± SD (dead time) ([1]; with Cort., listed as fluoxetine): 47.84 ± 10.33 s
- % Immobility (sec) ± SD (dead time) ([1]; without Cort.): 22.39 ± 4.91 s
- % Latency to immobility (sec) ± SD ([1]; without Cort.): 55.34 ± 15.71 s
- Weight (g) ± SD ([2]; with Cort. 35 μg/ml): 38 ± 2.16 g
- Weight (g) ± SD ([2]; without Cort.): 40.42 ± 2.25 g
- % Sucrose consumption (ml) ± SD ([3]; with Cort.): 72.39 ± 2.69%
- % Sucrose consumption (ml) ± SD ([3]; without Cort.): 82.10 ± 0.29%
- % Latency to immobility (sec) ± SD ([4]; with Cort. 35 μg/ml): 34.79 ± 6.38 s
- % Latency to immobility (sec) ± SD ([4]; with Cort. 35 μg/ml, listed as fluoxetine): 34.79 ± 6.38 s
- % Immobility (sec) ± SD (dead time) ([4]; without Cort.): 19.61 ± 7.90 s and 19.61 s
- % Latency to immobility (sec) ± SD ([4]; without Cort.): 49.51 ± 7.84 s and 49.51 ± 7.82 s

SMILES: O=c1cc(-c2ccccc2)oc2c(O)c(O)ccc12 [DHF, reference compound]
- Relative Protein Expression p TrkB 515 [5]: 2.43
- Relative Protein Expression p ERK 44/42 ([6]; DHF 5 nM): 5.28
- Relative Protein Expression p ERK 44/42 ([6]; DHF/Cort.): 5.00
- Relative Protein Expression Anti BDNF ([7]; DHF 5 nM): 1.03
- Relative Protein Expression Anti BDNF ([7]; DHF/Cort.): 0.53
- Relative Protein Expression p TrkB 816 [8]: 1.55
- Relative Protein Expression PAKT 473 ([9]; DHF 5 nM): 1.42
- Relative Protein Expression PAKT 473 ([9]; DHF/Cort.): 0.96
- Cell viability [10]: 104.3
- Cell viability [11]: 113.7
- Relative Protein Expression p TrkB 515 [12]: 2.11
- Relative Protein Expression p TrkB 816 [13]: 0.71

SMILES: C=C(C)[C@@H]1CCC(C)=C[C@H]1c1c(O)cc(CCCCC)c(CN2CCN(C)CC2)c1O [A8, 2′-{(4-methylpiperazin-1-yl)methyl}-cannabidiol]
- viability at 24 h, 5 µM ([14]; RAW264.7, 5 μM): 94.7 ± 2.7%
- viability at 24 h, 10 µM ([14]; RAW264.7, 10 μM): 87.1 ± 1.9%
- inhibition at 5 µM ([15]; 5 μM): 10.7 ± 2.3%
- inhibition at 10 µM ([15]; 10 μM): 19.6 ± 3.2%
- viability at 48 h, 20 µM [16]: 93.3 ± 0.39%
- viability at 48 h, 20 µM [17]: 89.4 ± 1.7%
